These results are taken from patent US7807828B2, “Olanzapine analogs and methods of use thereof” (Hypnion, Inc., priority 2005, dated 2010).

One assay has as its target 5HT2b (h) (Homo sapiens, UniProt P41595). The experiment in a line: 5HT2b (h) binding assay. The conditions noted are these: Table 7B; unit inferred.
Another assay has as its target T1, H1 (hr) (Homo sapiens, UniProt P35367).
T1 construct: Novascreen, MDS, Cerep (assay providers)
The experiment in a line: H1 (hr) Cerep binding assay. Conditions: Table 7A; Ki in nM. As for the experimental part:
(§1) Binding assays were performed using various sleep-inducing agents and derivatives selected from those listed in Table 1 in competitive binding assays with known standards for the H1 histamine receptor, and the M1, M2, and M3 muscarinic receptors, alpha 1 and alpha 2 receptors, D1 and D2 receptors, 5HT2a, 5HT2b, 5HT2c, 5HT2c, and 5HT7 receptors.
The histamine H1 assays are described in Chang, et al., Heterogeneity of Histamine H1-Receptors: Species Variation in [^3H]Mepyramine Binding of Brain Membranes. Journal of Neurochemistry. 32: 1653-1663 (1979); Martinez-Mir, M. I., Pollard, H., Moreau, J., et al. Three Histamine Receptors (H1, H2, and H3) Visualized in the Brain of Human and Non-Human Primates. Brain Res. 526: 322-327 (1990); Haaksma, E. E. J., Leurs, R. and Timmerman, H. Histamine Receptors: Subclasses and Specific Ligands. Pharmac. Ther. 47: 73-104 (1990). The muscarinic assays are described in Buckley, N. J., Bonner, T. I., Buckley, C. M., and Brann, M. R. Antagonist Binding Properties of Five Cloned Muscarinic Receptors Expressed in CHO-K1 Cells. Mol. Pharmacol. 35: 469-476 (1989). The assays were performed according to the preceding articles, with the following modifications. Chemical reagents in the following were obtained from Sigma, St. Louis, Mo.

A further assay addresses T2, Alpha 1B (h) (Homo sapiens, UniProt P35368).
T2 sequence (P35368 1-520): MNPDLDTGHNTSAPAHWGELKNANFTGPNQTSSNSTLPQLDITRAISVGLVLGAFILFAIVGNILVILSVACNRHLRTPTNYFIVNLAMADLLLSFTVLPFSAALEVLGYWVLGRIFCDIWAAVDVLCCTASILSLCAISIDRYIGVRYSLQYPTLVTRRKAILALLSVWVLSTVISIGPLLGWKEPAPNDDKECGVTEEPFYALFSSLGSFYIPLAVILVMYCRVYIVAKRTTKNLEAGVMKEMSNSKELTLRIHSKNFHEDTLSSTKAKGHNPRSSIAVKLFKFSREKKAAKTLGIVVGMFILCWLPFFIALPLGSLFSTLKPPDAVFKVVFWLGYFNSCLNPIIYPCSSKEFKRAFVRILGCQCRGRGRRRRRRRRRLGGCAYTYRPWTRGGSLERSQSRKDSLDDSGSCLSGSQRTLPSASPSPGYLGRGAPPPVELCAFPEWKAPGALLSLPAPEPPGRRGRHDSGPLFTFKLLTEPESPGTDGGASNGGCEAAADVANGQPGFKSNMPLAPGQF
As to the kind of experiment: Alpha 1B (h) binding assay. Conditions: Table 7A; unit inferred. On the procedure:
as §1

Another assay deals with 5HT2a (h R) (Homo sapiens, UniProt P28223). The experiment in a line: 5HT2a (h R) binding assay. Conditions: Table 7B; unit inferred. As for the experimental part:
as §1
In vitro binding assays are used to determine 5HT2a binding. These binding assays measure the ability of benzisoxazole analogs to displace known standards from the 5HT2a, 5HT2b, 5HT2c, and 5HT7. A decrease in the binding of the compounds to the M1-M3 receptors, relative to the binding of the compound to the 5HT2a receptor, is an indication of the greater specificity of the compound for the 5HT2a receptor over the muscarinic receptor. […] 5HT2a binding is determined as described for example in British Journal of Pharmacology (1995) 115, 622-628.

The next assay deals with D3 (Homo sapiens, UniProt P35462). As to the kind of experiment: D3 binding. The conditions noted are these: Table 7A, printed in column D2 (h); unit inferred.

Where “and” joins values, the source holds several entries; their conditions need not be identical. Identical values can stand only once.

Chain of 5HT2b (h) (P41595 whole entry): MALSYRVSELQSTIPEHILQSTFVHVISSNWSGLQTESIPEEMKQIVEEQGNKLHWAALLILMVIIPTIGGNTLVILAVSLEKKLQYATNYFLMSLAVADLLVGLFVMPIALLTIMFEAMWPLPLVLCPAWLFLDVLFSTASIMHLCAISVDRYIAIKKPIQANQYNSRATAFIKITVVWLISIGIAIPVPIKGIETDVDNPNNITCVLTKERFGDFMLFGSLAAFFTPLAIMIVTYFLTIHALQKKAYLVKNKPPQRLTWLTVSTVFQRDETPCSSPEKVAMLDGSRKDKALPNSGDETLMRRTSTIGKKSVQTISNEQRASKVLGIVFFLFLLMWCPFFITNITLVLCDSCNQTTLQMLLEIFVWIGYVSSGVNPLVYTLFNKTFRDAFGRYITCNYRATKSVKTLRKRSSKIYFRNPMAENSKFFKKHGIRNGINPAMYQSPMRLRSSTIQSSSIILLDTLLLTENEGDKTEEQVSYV
Chain of 5HT2a (h R) (P28223 whole entry): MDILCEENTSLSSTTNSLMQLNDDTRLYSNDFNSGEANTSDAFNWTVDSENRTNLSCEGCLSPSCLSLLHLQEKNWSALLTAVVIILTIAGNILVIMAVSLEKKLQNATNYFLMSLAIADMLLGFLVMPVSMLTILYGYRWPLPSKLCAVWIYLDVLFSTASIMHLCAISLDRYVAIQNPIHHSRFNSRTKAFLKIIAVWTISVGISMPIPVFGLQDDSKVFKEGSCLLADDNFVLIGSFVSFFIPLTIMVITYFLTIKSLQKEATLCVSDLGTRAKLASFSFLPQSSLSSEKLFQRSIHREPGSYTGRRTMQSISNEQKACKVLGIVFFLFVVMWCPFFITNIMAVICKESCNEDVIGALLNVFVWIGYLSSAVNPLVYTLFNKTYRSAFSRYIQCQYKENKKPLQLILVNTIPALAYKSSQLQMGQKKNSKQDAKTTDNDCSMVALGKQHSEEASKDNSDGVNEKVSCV
T1 sequence (P35367 whole entry): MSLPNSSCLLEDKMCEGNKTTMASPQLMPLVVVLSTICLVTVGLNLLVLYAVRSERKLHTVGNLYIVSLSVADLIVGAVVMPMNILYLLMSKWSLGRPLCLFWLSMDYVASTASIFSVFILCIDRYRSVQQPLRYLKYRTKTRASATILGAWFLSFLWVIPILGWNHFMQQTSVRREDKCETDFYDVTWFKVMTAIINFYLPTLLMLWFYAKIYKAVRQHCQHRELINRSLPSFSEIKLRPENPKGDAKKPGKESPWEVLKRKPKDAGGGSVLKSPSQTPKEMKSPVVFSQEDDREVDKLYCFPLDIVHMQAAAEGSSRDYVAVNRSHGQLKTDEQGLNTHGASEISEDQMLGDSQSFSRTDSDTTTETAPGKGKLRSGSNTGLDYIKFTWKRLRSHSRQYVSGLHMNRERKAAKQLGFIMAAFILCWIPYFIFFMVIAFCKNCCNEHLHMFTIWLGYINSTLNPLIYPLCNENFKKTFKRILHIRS
Chain of D3 (P35462 whole entry): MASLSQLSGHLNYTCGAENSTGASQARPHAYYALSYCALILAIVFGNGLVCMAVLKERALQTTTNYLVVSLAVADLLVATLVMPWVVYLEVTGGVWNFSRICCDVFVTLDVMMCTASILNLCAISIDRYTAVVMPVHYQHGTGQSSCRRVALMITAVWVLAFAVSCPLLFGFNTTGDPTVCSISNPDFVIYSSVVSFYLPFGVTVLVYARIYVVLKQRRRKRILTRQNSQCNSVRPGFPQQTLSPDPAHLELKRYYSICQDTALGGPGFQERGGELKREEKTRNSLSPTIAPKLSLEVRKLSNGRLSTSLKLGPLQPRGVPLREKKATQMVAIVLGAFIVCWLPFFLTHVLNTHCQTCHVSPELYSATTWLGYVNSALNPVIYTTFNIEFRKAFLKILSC

As usually defined, the Ki is the dissociation constant of the complex between target and ligand, obtained from inhibition or displacement. In the case of `Cc1cc2c(s1)Nc1ccccc1N=C2N1CCN(CC(C)(C)C(=O)O)CC1` [Compound 46], the Ki was 151 nM and 270 nM on 5HT2b (h); 210 nM at H1 (hr); 2100 nM on Alpha 1B (h); 200 nM on 5HT2a (h R).

The compound `CCc1cc2c(s1)Nc1ccccc1N=C2N1CCN(CC(C)(C)C(=O)O)CC1` [Compound 90] returned a Ki on D3 of 226 nM.
